Results: patent publication EP4316456A1, “BIOLOGICALLY ACTIVE QUADROCOMPLEX FOR REGULATING THE BIODIVERSITY OF SKIN MICROBIOTA” (SkyLab AG, priority 2021, dated 2022)

What was measured:
Micrococcus luteus [1] = assay: Effect of antibacterial basic samples on growth of hand skin microflora, double dilution method; format: cell-based; parameters: key: +: confluent growth-of test microorganisms as in the control; +: retarded or depressed growth; -: no growth; settings: 5% solution of sample in purified water with 0.5% Tween 80, 30 minutes; 48 hours at 37 degrees Celsius
Method: (§1) A mixture consisting of purified water and 0.5% Tween 80 was used as a base to include the components of the complex. Samples were prepared using a magnetic stirrer by solubilizing the components of the quad complex in Tween 80 and gradually introducing them into purified water at 350 rpm. The stability of the samples was evaluated visually, by the absence of separation of the fatty phase from the aqueous solution. 2 strains of microorganisms of normal microflora, widely represented on the skin of the hands, were selected: Staphylococcus epidermidis and Micrococcus luteus. Microorganisms of transient opportunistic microflora present on the skin of the hands were also selected: Staphylococcus aureus, Escherichia coli and fungi of Candida albicans genus. Microorganisms were obtained by washing from the skin of the hands of subjects or using standard strains, cultivating isolated microorganisms and counting the number of grown colonies of microorganisms. The method of the analysis is based on the double dilution method and consists in preparing a suspension of bacterial cells of selected microorganisms (S. aureus, E. coli, C. albicans, S. epidermidis, M. luteus) separately at a concentration of 1×10^9 cells/ml. Next, 0.2 ml of a suspension of bacterial cells is added to 1.8 ml of a 5% solution of antibacterial components. In 30 minutes, 1 ml of the resulting mixture is added to a test tube with 9 ml of sterile saline 0.9%. In 15 more minutes, a series of dilutions is prepared in sterile saline to a concentration of 10^3 cells/ml. 0.1 ml of a solution of the initial concentration and successive dilutions is added to the surface of cups with a special nutrient medium for the growth of selected microorganisms separately. The cultures are incubated for 48 hours at 37 degrees Celsius and the colonies are counted by the standard method. The parameter for the overall assessment of the effect of the biologically active quad complex on the growth of representatives of the normal microflora was the presence or no growth of microorganisms, determined by the microbiologist based on the results of the study. The indicator of bacterial growth allows evaluating the effect of microflora on microorganisms and drawing a conclusion about the effect of the quad complex on the microflora of hand skin. The general positive trend in the use of the components of the claimed quad complex is the absence of a negative effect on the normal microflora of the skin of the hands and a pronounced antibacterial effect on the transient microflora, which will ensure the maintenance of natural non-pathogenic microflora for dermatological comfort and hygiene of hand skin.

Candida albicans [2] = assay: as above; format: cell-based; parameters: key: +: confluent growth-of test microorganisms as in the control; +: retarded or depressed growth; -: no growth; settings: 5% solution of sample in purified water with 0.5% Tween 80, 30 minutes; 48 hours at 37 degrees Celsius
Method: as §1

Escherichia coli [3] = assay: as above; format: cell-based; parameters: key: +: confluent growth-of test microorganisms as in the control; +: retarded or depressed growth; -: no growth; settings: 5% solution of sample in purified water with 0.5% Tween 80, 30 minutes; 48 hours at 37 degrees Celsius
Method: as §1

[4] = tested on: Staphylococcus epidermidis; assay: as above; format: cell-based; parameters: key: +: confluent growth-of test microorganisms as in the control; +: retarded or depressed growth; -: no growth; settings: 5% solution of sample in purified water with 0.5% Tween 80, 30 minutes; 48 hours at 37 degrees Celsius
Method: as §1

Staphylococcus aureus [5] = assay: as above; format: cell-based; parameters: key: +: confluent growth-of test microorganisms as in the control; +: retarded or depressed growth; -: no growth; settings: 5% solution of sample in purified water with 0.5% Tween 80, 30 minutes; 48 hours at 37 degrees Celsius
Method: as §1

Micrococcus luteus [6] = assay: as above; format: cell-based; parameters: key: ++: no growth; +: depressed growth in most areas; +: retarded growth in some areas; confluent growth-of test microorganisms; settings: 5% solution of sample in purified water with 0.5% Tween 80, 30 minutes; 48 hours at 37 degrees Celsius
Method: as §1

Candida albicans [7] = assay: as above; format: cell-based; parameters: key: ++: no growth; +: depressed growth in most areas; +: retarded growth in some areas; confluent growth-of test microorganisms; settings: 5% solution of sample in purified water with 0.5% Tween 80, 30 minutes; 48 hours at 37 degrees Celsius
Method: as §1

Escherichia coli [8] = assay: as above; format: cell-based; parameters: key: ++: no growth; +: depressed growth in most areas; +: retarded growth in some areas; confluent growth-of test microorganisms; settings: 5% solution of sample in purified water with 0.5% Tween 80, 30 minutes; 48 hours at 37 degrees Celsius
Method: as §1

[9] = tested on: Staphylococcus epidermidis; assay: as above; format: cell-based; parameters: key: ++: no growth; +: depressed growth in most areas; +: retarded growth in some areas; confluent growth-of test microorganisms; settings: 5% solution of sample in purified water with 0.5% Tween 80, 30 minutes; 48 hours at 37 degrees Celsius
Method: as §1

Staphylococcus aureus [10] = assay: as above; format: cell-based; parameters: key: ++: no growth; +: depressed growth in most areas; +: retarded growth in some areas; confluent growth-of test microorganisms; settings: 5% solution of sample in purified water with 0.5% Tween 80, 30 minutes; 48 hours at 37 degrees Celsius
Method: as §1

[11] = octanol to water; average logP for the essential oil; source not stated; cited from earlier work

| Molecule | growth of test-strain (Micrococcus luteus [1]) | growth of test-strain (Candida albicans [2]) | growth of test-strain (Escherichia coli [3]) | growth of test-strain [4] | growth of test-strain (Staphylococcus aureus [5]) | growth of test-strain (Micrococcus luteus [6]) | growth of test-strain (Candida albicans [7]) | growth of test-strain (Escherichia coli [8]) | growth of test-strain [9] | growth of test-strain (Staphylococcus aureus [10]) | logP [11] |
| --- | --- | --- | --- | --- | --- | --- | --- | --- | --- | --- | --- |
| CCO [Ethyl alcohol 96%, Ethyl alcohol] | ++ | ++ | ++ | ++ | ++ |  |  |  |  |  |  |
| OO [Hydrogen peroxide 3%, Hydrogen peroxide] |  |  |  |  |  | + | + | + | + | + |  |
| CC12CCC(CC1)C(C)(C)O2 [1,8-cineol 0,15%, 1,8-cineol] |  |  |  |  |  | - | - | + | - | - | 2.82 |
| Benzalkonium chloride [Benzalkonium chloride 0,1%] | ++ | ++ | ++ | ++ | ++ |  |  |  |  |  |  |
| CC(C)=CCC[C@](C)(O)[C@@H]1CC=C(C)CC1 [Alpha-bisabolol 0,10%, alpha-bisabolol] |  |  |  |  |  | - | - | + | - | + | 3.80 |
